Assay type in all cases: cell-based
The subject of one assay is S. aureus. Nature of the assay: MIC in a solid medium. The conditions noted are these: expressed as dilution of the product. The source says: (§1) This is shown by means of its MIC (minimum inhibiting concentration).
(§2) A MIC is obtained in a solid medium against S. aureus and P. aeruginosa.

A further assay has as its system P. aeruginosa. In words: MIC in a solid medium. As to conditions: expressed as dilution of the product.
Text: as §1, §2

Assay [1] has as its system S. aureus, S. epidermidis, E. faecalis, E. coli, K. pneumoniae, E. cloacae, P. mirabilis, Acinetobacter baumanii, P. aeruginosa, C. albicans, Mycobacterium …. In words: Bactericidal effect on endodontic files, whole panel of Example 1. As to conditions: 20 minutes. How it is done:
For the determination of these three effects, the methods described by Herruzo et al in 1999 were used (Rev Stomatol Chir maxillofac 1999; 100: 299-305), which may be resumed as follows: • a) Bactericidal effect on instruments difficult to disinfect: No. 25 endodontic files.
These files are contaminated in a micro-organism for 30 minutes and after drying for 15 minutes in an oblique position, they are introduced in the disinfectant for 5, 10, 15, 20, etc. minutes. Afterwards, they are removed and submerged in a tube with glass beads and a disinfectant inhibitor (broth plus 6% Tween 80, plus 0.5% sodium bisulphite and 0.5% sodium thiosulphate). The tubes are then stirred for 1 minute to detach the surviving micro-organisms, and samples are cultured over the entire surface of agar plates with the culture medium suitable for the tested micro-organism (Müeller-Hinton or Saboureaud-dextrose for yeasts or HIB for mycobacteria, etc.). […] It is recorded if there was any deterioration or not and the time at which it occurred. […]

A further assay relates to spores of B subtilis. In words: Sporicidal effect on commercial cellulose germ holder. The conditions noted are these: reference disinfectant as such; 10 minutes. How it is done: In this case, another more demanding test was used, since the sporicidal effect was assessed. It is similar to the bactericidal effect, but instead of contaminated instruments, a commercial, cellulose germ holder was used, impregnated in spores. In fact, this is the biological control used in sterilisation by ethylene oxide: spores of B subtilis, at a concentration guaranteed by the manufacturer (3M) and which exceed a million spores per germ holder. The rest was similar to that described in the endodontic file method.

As for `[H]/N=C(\N/C(=N/[H])NCCCCCCNC(=N)NC(=N)Nc1ccc(Cl)cc1)Nc1ccc(Cl)cc1` [Clo, Chlorhexidine], the “MIC (minimum inhibiting concentration)” value is 1/20480 in the assay on S. aureus and 1/2560 with P. aeruginosa.
For the compound `O=CCCCC=O` [2% glutaraldehyde, glutaraldehyde], the “bactericidal effect against Mycobacterium” value in assay [1] is “did not completely destroyed the inoculum”. Further, in the assay on spores of B subtilis, the “reduction of the spore inoculum” value worked out at 1.5 log 10.
On to “Didecyl-metyl-polyoxy-ethyl-ammonium propionate”, for which the “MIC (minimum inhibiting concentration)” value in the assay on S. aureus was 1/20480; with P. aeruginosa, 1/160.

The record behind these values is US6908628B2, “Disinfectant and antiseptic composition” (priority 2001, dated 2005).
